For five molecules, Activity results are on record in ChEMBL document CHEMBL4052622, “Geldanamycin-inspired compounds induce direct trans-differentiation of human mesenchymal stem cells to neurons” (Eur J Med Chem, 2017).

Calls of active or inactive are those of the source. The rule behind the calls is not given here.

What all share (format): functional, cell-based
The test system of test [1] is MSC. As to the kind of experiment: Induction of differentiation of human umbilical cord tissue-derived MSC to neurons assessed as upregulation of nestin levels at 10 uM after 11 days by End PCR analysis.
In test [2] the test system is MSC. The experiment in a line: Induction of differentiation of human umbilical cord tissue-derived MSC to neurons assessed as upregulation of agrin levels at 10 uM after 11 days by End PCR analysis.
In test [3] the test system is MSC. As to the kind of experiment: Induction of differentiation of human umbilical cord tissue-derived MSC to neurons assessed as upregulation of RTN4 levels at 10 uM after 11 days by End PCR analysis.
For test [4], the system named is MSC. As to the kind of experiment: Induction of differentiation of human umbilical cord tissue-derived MSC to neurons assessed as phenotypic changes in cell at 10 uM after 11 days by End PCR analysis.

`CO[C@H]1[C@@H](OC)C[C@H](C)Cn2cc(nn2)COC(=O)/C(C)=C/CC[C@H](OC)[C@H](CO)OC(=O)[C@@H]1C`: the outcome in the test with MSC [1], with MSC [2], with MSC [3] and in the test on MSC [4] was Active.

For `CO[C@H]1[C@@H](OC)C[C@H](C)Cn2cc(nn2)COC(=O)/C(C)=C/CC[C@H](OC)[C@H](CO[Si](C)(C)C(C)(C)C)OC(=O)[C@@H]1C`, the outcome in the test with MSC [1], with MSC [2] and in the test on MSC [3] was Active.

For the molecule `CO[C@@H](C[C@H](C)CO)[C@H](O)[C@@H](C)C(=O)N1C(=O)OC[C@H]1Cc1ccccc1`, the result in the test on MSC [1], with MSC [2], in the test with MSC [3] and in the test on MSC [4] was Active.

For `CO[C@H]1[C@@H](OC)C[C@H](C)Cn2cc(nn2)COC(=O)/C(C)=C/C=C\[C@H](OC)[C@H](CO[Si](C)(C)C(C)(C)C)OC(=O)[C@@H]1C`, the outcome with MSC [1], in the test with MSC [2] and in the test with MSC [3] was Active.

As for `CO[C@@H]([C@H](C[C@H](C)CN=[N+]=[N-])OC)[C@@H](C)C(=O)N1C(=O)OC[C@H]1Cc1ccccc1`, the result in the test on MSC [1] was inactive. Also, the result with MSC [2] and with MSC [3] was Active.
